Results on five molecules are retold here after US9694087B2, “Development of novel macromolecule transduction domain with improved cell permeability and method for using same” (priority 2011, dated 2017).

One data set has as its system human skin. The data set is described as follows: Primary stimulus test using human skin (patch test). The class given is in vivo. Particulars: overall evaluation from Table 4. The method, then:
To confirm safety of the modified MTD (M1067) synthesized in Example 4, the modified MTD (M1067)-coumaric acid and the modified MTD (M1067)-acetyl pentapeptide synthesized in Examples 12-1 and 12-2, a primary stimulus test using human skin was performed. The test was conducted by a specialized clinical research organization, Dermapro, and the clinical composition was prepared as will be described below. 30 or more subjects meeting standards for the clinical test and not falling under exclusion standards were selected. Sample materials were applied to backs of the subjects, and removed after 48 hours. The test sites were observed 30 minutes and 24 hours later, after the removal.
The skin evaluation was performed by the Frosch & Kligman method (Frosch P. J and Kligman A. M. J Am Acad Dermatol, 1(1):35-41 (1979)) and standards shown in Table 3 reflecting the Cosmetic, Toiletry, and Fragrance Association (CTFA) guidelines (The Cosmetic, Toiletry and Fragrance Association, Inc. Washington, D.C. 20005 (1981)), average degrees of reaction after 48 and 72 hours were compared, and results were determined based on the average degree of reaction of each composition.

A further data set has as its system ICR mice. The data set is described as follows: In vivo epithelial tissue (skin) permeability by confocal microscopy. Particulars: FITC-labelled, applied on gauze to back skin, 1, 3, 6 and 12 hours; FIG. 12. Further details: species or system mouse. The method, then: After 1, 3, 6, and 12 hours, the mice were sacrificed by cervical dislocation, and skin at the drug-applied parts was extracted. Afterward, the skin was put in 4% paraformaldehyde for 24 hours to fix a tissue and then prepared in a 6 μm cryosection to form a slide. […] The stained tissue was washed again three times with PBS buffer for 10 minutes, fixed with mounting media, and observed by confocal microscopy.

For a further data set, the system named is HeLa cells. The data set is described as follows: Visible cell permeability by confocal microscopy, cervix adenocarcinoma cells. The class given is cell-based, human. The note with it: 5 μM, 1 hour, FIG. 10. The method, then:
Cell permeability of HeLa cells (HeLa cell, Human cervix adenocarcinoma, Cat No. CCL-2, ATCC, USA) derived from Human cervix adenocarcinoma as cancer-derived cells was compared using a confocal microscope (Carl Zeisse, Germany).
Particularly, before a test, the HeLa cells were cultured in a 12-well culture plate with a glass cover slip for 24 hours. The HeLa cells were cultured in a DMEM medium containing 10% fetal bovine serum (FBS), and 1% penicillin/streptomycin (10,000 units penicillin and 10,000 μg/mL streptomycin, invitrogen), in a humidified atmosphere with 5% CO2 at 37° C. After 5 μM of peptides was treated to the […] for 1 hour, the cells were fixed with 4% paraformaldehyde (PFA) at room temperature for 20 minutes to observe the cell permeability using a confocal microscope.
To directly detect internalized MTD-FITC, the cells were washed three times with phosphoric acid buffer and 5 μM of 4′,6-diamidino-2-phenylindole (DAPI), which is a nucleus fluorescence staining solution, was counter-stained. […] In addition, an original form of the cell was observed using a nomarski filter with a confocal microscope, and FITC fluorescence and DAPI fluorescence were observed using a filter suitable for a fluorochrome.

Where a SMILES comes first, the peptide text is derived from it. Where no end group is shown, it is not given here. The star is where a group is joined. X1 = O=C(C=Cc1ccc(O)cc1)*

Take `CSCC[C@H](N)C(=O)N[C@@H](CCCNC(=N)N)C(=O)N[C@@H](C)C(=O)N[C@@H](C)C(=O)N[C@@H](C)C(=O)N1CCC[C@H]1C(=O)N[C@@H](C)C(=O)N[C@H](C(=O)N[C@@H](C)C(=O)N[C@@H](C)C(=O)O)C(C)C` [M1067] (H-MRAAAPAVAA-OH): the “evaluation in the human skin primary stimulus test” value (“evaluation” below) with human skin is “low-stimuli materials”. Take `CSCC[C@H](NC(=O)[C@H](CCCNC(=N)N)NC(=O)[C@H](C)NC(=O)[C@H](C)NC(=O)[C@H](C)NC(=O)[C@@H]1CCCN1C(=O)[C@H](C)NC(=O)[C@@H](NC(=O)[C@H](C)NC(=O)[C@H](C)NC(=O)C=Cc1ccc(O)cc1)C(C)C)C(=O)O` [modified MTD (M1067)-coumaric acid] (X1-AAVAPAAARM-OH): the “evaluation” value with human skin was “low-stimuli materials”. On to “GRKKRRQRRR (also: FITC label, place not given here) [Tat, used FITC-labelled, reference compound]”, for which the epithelial permeation entry with ICR mice was “epithelial permeation was not induced”. For the same molecule, the “intracellular localization of the FITC-peptide” value with HeLa cells was “attached to an outside of the cell membrane”. On to “M1103: modified MTD having an amino acid sequence of SEQ. ID. NO: 17 (MRLALPVLLLA; MTD 1103 Amino Acid Sequence)”, for which the “intracellular localization of the FITC-peptide” value in the data set on HeLa cells is “apparently distributed into a cytoplasm”.

For “Met Arg Ala Ala Ala Pro Ala Val Ala Ala Lys*Ther Ther Lys Ser [modified MTD (M1067)-acetyl pentapeptide]”, the “evaluation” value with human skin is “low-stimuli materials”.
